Each structure is given as a SMILES string.

In experiment [1] the test system is Radical scavenging activity. The experiment can be described thus: Hydroxyl radical scavenging activity at 2 mM. Format: functional.
The test system of experiment [2] is Radical scavenging activity. The experiment can be described thus: Hydroxyl radical scavenging activity. The experiment is classed as functional.

The term inhibition denotes the change of the read-out against control, counted positive when it falls. Lower therefore signals a response near the control. For the compound `CC(C)=CCC[C@@](C)(O)[C@H]1CC[C@]2(C)[C@@H]1[C@H](O)C[C@@H]1[C@@]3(C)CC[C@H](O[C@@H]4O[C@H](CO)[C@@H](O)[C@H](O)[C@H]4O[C@@H]4O[C@H](CO)[C@@H](O)[C@H](O)[C@H]4O)C(C)(C)[C@@H]3CC[C@]12C`, the inhibition in experiment [1] is 72%.

One may read the IC50 as the concentration at which inhibition is half-maximal. A low value points to greater potency in that assay. Turning to `O=C(O[C@@H]1Cc2c(O)cc(O)cc2O[C@@H]1c1cc(O)c(O)c(O)c1)c1cc(O)c(O)c(O)c1` [EPIGALOCATECHIN GALLATE], the midpoint of inhibition in experiment [2], the IC50, lay at 3760 µM. With `CC(C)=CCC[C@](C)(O)[C@H]1CC[C@]2(C)[C@@H]1[C@H](O)C[C@@H]1[C@@]3(C)CC[C@H](O[C@@H]4O[C@H](CO)[C@@H](O)[C@H](O)[C@H]4O[C@@H]4O[C@H](CO)[C@@H](O)[C@H](O)[C@H]4O)C(C)(C)[C@@H]3CC[C@]12C`, in experiment [1], the inhibition turned out to be 20%. In experiment [2], the IC50 is 440 µM. As for `C=C(CCC=C(C)C)[C@H]1CC[C@]2(C)[C@@H]1[C@H](O)C[C@@H]1[C@@]3(C)CC[C@H](O[C@@H]4O[C@H](CO)[C@@H](O)[C@H](O)[C@H]4O[C@@H]4O[C@H](CO)[C@@H](O)[C@H](O)[C@H]4O)C(C)(C)[C@@H]3CC[C@]12C`, in experiment [1], the inhibition is 68%.

Turning to `CC(C)=CC/C=C(\C)[C@H]1CC[C@]2(C)[C@@H]1[C@H](O)C[C@@H]1[C@@]3(C)CC[C@H](O[C@@H]4O[C@H](CO)[C@@H](O)[C@H](O)[C@H]4O[C@@H]4O[C@H](CO)[C@@H](O)[C@H](O)[C@H]4O)C(C)(C)[C@@H]3CC[C@]12C` [GINSENOSIDE RG5], the inhibition in experiment [1] was determined as 16%. In experiment [2], this compound yielded an IC50 of 150 µM.

For the origin of these results see ChEMBL document CHEMBL1146894, “Stereospecificity in hydroxyl radical scavenging activities of four ginsenosides produced by heat processing” (Bioorg Med Chem Lett, 2006).
